Like-named read-outs stand apart in the source and are kept apart here. A value given as a limit tells only on which side of the number the result lay.

The target of assay [1] is haloalkane dehalogenase DhaA (Rhodococcus rhodochrous, UniProt P0A3G2). The assay is classed as biochemical, Rhodococcus rhodochrous NCIMB 13064.
The target in assay [2] is haloalkane dehalogenase DbjA (Bradyrhizobium diazoefficiens, UniProt P59337). The assay is classed as biochemical, Bradyrhizobium japonicum USDA110.
The test system of assay [3] is haloalkane dehalogenase DrbA. The assay is classed as biochemical, Rhodopirellula baltica. As to conditions: pH 8.2.
Assay [4] concerns the target haloalkane dehalogenase LinB (Sphingobium indicum, UniProt D4Z2G1). Format: biochemical, Sphingomonas paucimobilis UT26.
Assay [5] has as its target haloalkane dehalogenase DmbB (Mycobacterium bovis, UniProt P64302). Format: biochemical. The note with it: pH 8.2.
The target of assay [6] is haloalkane dehalogenase DhmA (Mycobacterium avium, UniProt Q93K00). The assay is classed as biochemical. As to conditions: pH 8.2.
Assay [7] has as its target haloalkane dehalogenase DmbC (Mycobacterium bovis, UniProt P64304). Format: biochemical. The note with it: pH 8.2.
Assay [8] relates to haloalkane dehalogenase DbeA. Format: biochemical, Bradyrhizobium elkanii. The note with it: pH 8.2.
Assay [9] concerns haloalkane dehalogenases DmbA, DmbB, DmbC, DhlA, DhaA, DrbA, LinB, DhmA, DbjA and DbeA. Format: biochemical.
The target of assay [10] is modified protein MUT01 with haloalkane dehalogenase activity (Rhodococcus rhodochrous, UniProt P0A3G2, A172V/C176G/F144A/G171R/INS140[…]/K175G/P142A/V245A/W141H). The assay is classed as biochemical. As to conditions: pH 8.2.
In assay [11] the target is haloalkane dehalogenase DhlA (Xanthobacter autotrophicus, UniProt P22643). The assay is classed as biochemical, Xanthobacter autotrophicus GJ10.
The target of assay [12] is haloalkane dehalogenase LinB L177H (Sphingobium indicum, UniProt D4Z2G1, L177H). The assay is classed as biochemical.
Assay [13] concerns the target haloalkane dehalogenase LinB L177A (Sphingobium indicum, UniProt D4Z2G1, L177A). The assay is classed as biochemical.
Assay [14] concerns the target haloalkane dehalogenase LinB L177G (Sphingobium indicum, UniProt D4Z2G1, L177G). Format: biochemical.
The target in assay [15] is haloalkane dehalogenase LinB L177C (Sphingobium indicum, UniProt D4Z2G1, L177C). Format: biochemical.
For assay [16], the target named is haloalkane dehalogenase LinB L177Q (Sphingobium indicum, UniProt D4Z2G1, L177Q). Format: biochemical.
The target of assay [17] is haloalkane dehalogenase LinB L177K (Sphingobium indicum, UniProt D4Z2G1, L177K). Format: biochemical.
In assay [18] the target is haloalkane dehalogenase LinB wild type (Sphingobium indicum, UniProt D4Z2G1). The assay is classed as biochemical, Sphingomonas paucimobilis UT26.
The target in assay [19] is haloalkane dehalogenase LinB L177T (Sphingobium indicum, UniProt D4Z2G1, L177T). Format: biochemical.
Assay [20] deals with haloalkane dehalogenase LinB L177R (Sphingobium indicum, UniProt D4Z2G1, L177R). Format: biochemical.
Assay [21] concerns the target haloalkane dehalogenase LinB L177W (Sphingobium indicum, UniProt D4Z2G1, L177W). Format: biochemical.
Assay [22] concerns the target haloalkane dehalogenase LinB L177S (Sphingobium indicum, UniProt D4Z2G1, L177S). The assay is classed as biochemical.
Assay [23] deals with haloalkane dehalogenase LinB L177V (Sphingobium indicum, UniProt D4Z2G1, L177V). The assay is classed as biochemical.
Assay [24] concerns the target haloalkane dehalogenase LinB L177F (Sphingobium indicum, UniProt D4Z2G1, L177F). Format: biochemical.
The target in assay [25] is haloalkane dehalogenase LinB L177Y (Sphingobium indicum, UniProt D4Z2G1, L177Y). Format: biochemical.
Assay [26] concerns the target haloalkane dehalogenase LinB L177M (Sphingobium indicum, UniProt D4Z2G1, L177M). The assay is classed as biochemical.
Assay [27] has as its target haloalkane dehalogenase LinB L177D (Sphingobium indicum, UniProt D4Z2G1, L177D). Format: biochemical.

As for `CCOC(=O)C(Br)CC` (racemic) [ethyl 2-bromobutyrate], the “E-values DhaA” value in assay [1] and in [1] (pH 8.2) was over 200 each time. For the same molecule, the “E-values DbjA” value in assay [2] and in [2] (pH 8.2) was over 200 throughout. The “E-values DrbA” value in [3] is over 200. For the same molecule, the “E-values LinB” value in [4] and in assay [4] (pH 8.2) was over 200 each time. Further, the “E-values DmbB” value in assay [5] is over 200. The “E-values DhmA” value in assay [6] was over 200. For the same molecule, the “E-values DmbC” value in [7] is listed as over 200. In assay [8], the “E-values DbeA” value was over 200.
On to `CC(Br)C(=O)c1ccccc1` (racemic) [2-bromopropiophenone], for which the “E-values DhaA” value in [1] is recorded as over 200. The “E-values DbjA” value in assay [2] is given as over 200. In addition, the “E-value, chiral recognition by DbjA” value in assay [2] (pH 8.2) is over 200. For the same molecule, the “E-values LinB” value in assay [4] is listed as 13. Moreover, the enantioselectivity result in assay [9] is recorded as “excellent enantioselectivity”.
With `CCOC(=O)C(C)Br` (racemic) [ethyl 2-bromopropionate], the “E-values DhaA” value in assay [1] worked out at 59. In assay [2], the “E-values DbjA” value amounted to 194. Further, the “E-value, chiral recognition by protein MUT01” value in assay [10] was over 200. Also, the “E-values LinB” value in assay [4] amounted to 97. Further, the enantioselectivity result in assay [9] is “excellent enantioselectivity”.
Regarding `CCCC(C)Br` (racemic) [2-bromopentane], the “E-values DhaA” value in assay [1] was determined as 7. For the same molecule, in assay [2], the “E-values DbjA” value turned out to be 145. In addition, the “E-value, chiral recognition by DbjA” value in assay [2] (pH 8.2) was over 145. For the same molecule, the “E-values DhlA” value in assay [11] amounted to 5.5. Besides, the “E-values LinB” value in [4] is 16. Further, the “E-value, chiral recognition by DbeA” value in assay [8] came to 98.
Turning to `C=C(C)CCl` [3-chloro-2-methylpropene], the “Relative activities (% of wt) L177H” value in assay [12] was 82 % of wt. In addition, the “Relative activities (% of wt) L177A” value in assay [13] was 199 % of wt. For the same molecule, in [14], the “Relative activities (% of wt) L177G” value was 200 % of wt. Also, the “Relative activities (% of wt) L177C” value in [15] is 157 % of wt. Besides, the “Relative activities (% of wt) L177Q” value in assay [16] is 138 % of wt. Moreover, in assay [17], the “Relative activities (% of wt) L177K” value was 110 % of wt. In assay [18], the “Relative activities (% of wt) wt1” value is 100 % of wt and the “Relative activities (% of wt) wt2” value is on record as 100 % of wt. Also, in assay [19], the “Relative activities (% of wt) L177T” value is on record as 96 % of wt. Also, the “Relative activities (% of wt) L177R” value in assay [20] is recorded as 83 % of wt. For the same molecule, the “Relative activities (% of wt) L177W” value in [21] is listed as 91 % of wt. Also, in assay [22], the “Relative activities (% of wt) L177S” value was 65 % of wt. In addition, the “Relative activities (% of wt) L177V” value in assay [23] is listed as 79 % of wt. Moreover, the “Relative activities (% of wt) L177F” value in [24] is reported as 98 % of wt. Further, the “Relative activities (% of wt) L177Y” value in assay [25] is 78 % of wt. Moreover, the “Relative activities (% of wt) L177M” value in assay [26] was 100 % of wt. In addition, in assay [27], the “Relative activities (% of wt) L177D” value was 25 % of wt.
As for `ICCCI` [1,3-diidopropane], the “Relative activities (% of wt) L177H” value in assay [12] is 140 % of wt. Also, the “Relative activities (% of wt) L177A” value in assay [13] was 360 % of wt. Also, in assay [14], the “Relative activities (% of wt) L177G” value is recorded as 164 % of wt. Also, in assay [15], the “Relative activities (% of wt) L177C” value is 192 % of wt. In addition, in assay [16], the “Relative activities (% of wt) L177Q” value is listed as 159 % of wt. In addition, in assay [17], the “Relative activities (% of wt) L177K” value is listed as 132 % of wt. In assay [18], the “Relative activities (% of wt) wt1” value is 100 % of wt and the “Relative activities (% of wt) wt2” value is 100 % of wt. Also, the “Relative activities (% of wt) L177T” value in assay [19] is listed as 108 % of wt. The “Relative activities (% of wt) L177R” value in assay [20] is given as 127 % of wt. The “Relative activities (% of wt) L177W” value in assay [21] is listed as 117 % of wt. Moreover, the “Relative activities (% of wt) L177S” value in assay [22] is 123 % of wt. The “Relative activities (% of wt) L177V” value in assay [23] is on record as 206 % of wt. In addition, the “Relative activities (% of wt) L177F” value in assay [24] was 130 % of wt. Besides, in assay [25], the “Relative activities (% of wt) L177Y” value is reported as 102 % of wt. Besides, the “Relative activities (% of wt) L177M” value in [26] is 202 % of wt. In addition, the “Relative activities (% of wt) L177D” value in assay [27] was 209 % of wt.
Turning to `COC(=O)C(C)Br` (racemic) [methyl 2-bromopropionate], the “E-values DhaA” value in assay [1] was determined as 68. The “E-value, chiral recognition by DhaA” value in assay [1] (pH 8.2) is over 200. The “E-values DbjA” value in [2] is over 200. Besides, the “E-values LinB” value in assay [4] was determined as 52. Besides, the enantioselectivity entry in assay [9] is “excellent enantioselectivity”.

Values taken from patent publication US7632666B2 (priority 2005, dated 2009).
